In assay [1] the target is T1, APOL1 G2 (Homo sapiens, UniProt O14791, DEL388-389).
T1 construct: expressed in transfected cells; host or cells: HEK293/T-REx APOL1 G2 clone #2, doxycycline-inducible
T1 sequence (O14791 with tags, fused parts or gaps DEL388-389): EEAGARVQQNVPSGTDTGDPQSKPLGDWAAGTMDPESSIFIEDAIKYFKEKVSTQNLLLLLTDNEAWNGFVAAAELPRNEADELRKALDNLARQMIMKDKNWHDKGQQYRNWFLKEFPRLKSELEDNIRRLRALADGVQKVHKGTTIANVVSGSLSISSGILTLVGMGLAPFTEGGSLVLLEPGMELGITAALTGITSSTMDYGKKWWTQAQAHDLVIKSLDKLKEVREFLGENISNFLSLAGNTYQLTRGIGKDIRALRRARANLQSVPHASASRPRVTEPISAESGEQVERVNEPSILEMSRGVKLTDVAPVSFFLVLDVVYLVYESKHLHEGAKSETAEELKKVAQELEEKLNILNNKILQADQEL
Put plainly: APOL1 G2 HEK293 rescue of cell death caused by overexpression of APOL1 (CellTiter-Glo). The assay is classed as cell-based. The conditions noted are these: HEK293/T-REx APOL1 G2 clone #2, doxycycline induction, 17 hours, CellTiter-Glo luminescence; reversal of cell death; geometric mean of at least 2 assay runs. On the procedure: A HEK293 clonal cell line overexpressing APOL1 G2 (HEK293/T-REx APOL1 G2/clone #2) was maintained in 1×DMEM-GlutaMax (Gibco, 10569-010) media with 10% tetracycline-free FBS (Takara Bio USA, 631101), 5 μg/mL Blasticidin (Gibco, A1113903), and 100 μg/mL Zeocin (Invitrogen, R25001) in T75 flasks. In preparation for the assay, this media was aspirated and 2 mL of prewarmed TrypLE Express (Gibco, 12605-010) was added to a flask to detach cells. The flask was then incubated (humidified, 37° C. with 5% CO2) for 3-5 minutes. Afterwards, 8 mL of prewarmed cell assay media (1×DMEM-GlutaMax media with 10% tetracycline-free FBS) was added to the trypsinized cells. The suspension was gently mixed, and cells were counted using a Countess Cell Counting Chamber (Invitrogen). The suspension was diluted using cell assay media to generate a working stock solution (166,667 cells/mL). Using a MultiDrop Combi (Thermo Electron Corp), 30 μL (final cell density=5,000 cells/well) of the working stock solution was dispensed into each well of white 384-well assay ready plates (Nunc™, 164610) containing 6 ng/mL doxycycline, to induce APOL1 expression, and compound. All compounds were plated in a duplicate 8-point dilution series that consisted of 3-fold stepwise dilutions (0.5% DMSO final). Assay plates were incubated (humidified, 37° C. with 5% CO2) for 17 hours. After the incubation, the plates were equilibrated at room temperature for 1 hour. Next, 15 μl of CellTiter-Glo® reagent (Promega, G7570) was added to each well using a MultiDrop Combi. Plates were placed on an orbital shaker (500 rpm) for 5 minutes to induce cell lysis and then incubated at room temperature for 10 minutes. Luminescence was measured on an Envision plate reader. Collaborative Drug Discovery software was utilized for graphing data. Plots were generated using a four parameter logistic curve fit.
Table B2 below provides the results from this experiment. Unless otherwise specified, EC50 values are reported as the geometric mean of at least 2 assay runs on separate days. Each run represents the average of a technical replicate, where each compound was assayed twice in the same plate. A superscript t symbol indicates a value from the average of a technical replicate from a single assay run, where each compound was assayed twice in the same plate. Compounds in Table B2 are referred to by the corresponding Compound Number in Table 1, which is also referred to in the synthetic examples. When one or more of the numbered compounds are identified by stereochemistry (for example, (R)- or (S)-), the specific stereoisomer for which data is provided in Table B2 may be identified by the elution order of such compound as described in the synthetic examples. To illustrate, Compound 2 is the first-eluting enantiomer of step 4 of Example 1 and Compound 3 is the second-eluting enantiomer of step 4 of Example 1. Further, by way of illustration, Compound 27 is the first-eluting enantiomeric mixture in step 4 of Example 7 and Compound 28 is the second-eluting enantiomeric mixture in step 4 of Example 7. Then, Compound 27 is separated into Compound 29 (the first-eluting enantiomer) and Compound 30 (the second-eluting enantiomer) in Example 8, and Compound 28 is separated into Compound 31 (the first-eluting enantiomer) and Compound 32 (the second-eluting enantiomer) in Example 8. Absolute stereochemistry of such compounds may be identified by methods known in the art.
Rescue EC50 values reported in Table B2 below represent the half-maximal effective concentration for reversal of cell death caused by overexpression of APOL1.

Assay [2] deals with T1, APOL1 G2. Briefly: APOL1 G2 FLIPR calcium influx assay (HEK T-REx/GCaMP6f/APOL1 G2 K6.3 cells). Format: cell-based. The conditions noted are these: HEK293 clone expressing GCaMP6f, doxycycline-induced APOL1 G2; prevention of calcium influx; geometric mean of at least 2 assay runs. The protocol:
A HEK293 clonal cell line was generated to stably express GCaMP6f, a genetically encoded calcium indicator, and inducibly express APOL1 G2 (HEK T-REx/GCaMP6f/APOL1 G2 K6.3). Cells were maintained in the following standard complete medium: DMEM with 4.5 g/L glucose and sodium pyruvate (BioWhittaker, Lonza, BE12-614F), supplemented with 10% FBS Performance Plus (Gibco, 16000044), 1% penicillin-streptomycin (BioWhittaker, DE17-602E), 2 mM ultraglutamine-1 (BioWhittaker cat. BE 17-605/U1), 50 μg/mL Zeocin (InvivoGen, ant-zn), 2.5 μg/mL Blasticidin (InvivoGen, ant-bl-5), and 25 μg/mL Hygromycin (InvivoGen, ant-hg). Standard propagation conditions consisted of plating 9×10^6, 4×10^6, 2×10^6 cells in a T225 flasks to be processed after 2, 3, or 4 days, respectively.
A source plate was generated containing 20 serially diluted compounds in DMSO (duplicate 8-point dose response). Next, 0.8 μL of compounds were transferred from the source plate to a destination plate prefilled with 79.2 μL of Ca^2+ free Tyrode's buffer (130 mM NaCl, 5 mM KCl, 1 mM MgCl2, 5 mM NaHCO3, 20 mM HEPES at pH 7.4). The destination plate was placed on a plate shaker (5 seconds at 2000 rpm) to mix. […] All transfer and mixing steps were conducted with an CyBi®-Well dispenser.
Cells were split by gently washing with DPBS (Euroclone, ECB4004L), followed by a 5-minute incubation (humidified, 37° C. with 5% CO2) with trypsin-EDTA solution (Euroclone, ECB3052D). Detached cells were diluted with standard complete medium without selective agents, counted, and plated in a 384 MTP microplate (GR4332CPL, Twin Helix) (10,000 cells/well in 25 μl/well) using a MATRIX WellMate dispenser. Plates were placed into a humidified incubator (37° C. with 5% CO2) overnight. The following day, 20 μL of doxycycline (Sigma, D9891) at 20 ng/mL in standard complete medium was added to cells with a CyBi®Drop dispenser to induce APOL1 G2 expression. After a 6-hour incubation (humidified, 37° C. with 5% CO2), cells were washed 3 times with Ca^2+ free Tyrode's Buffer (130 mM NaCl, 5 mM KCl, 1 mM MgCl2, 5 mM NaHCO3, 20 mM HEPES at pH 7.4) using a BIOTEK Microplate washer, such that 10 μL of buffer remained in each well after the final wash. Assay plates were then stored at room temperature for 10 minutes. Next, 10 μL of diluted compounds were transferred to the assay plate from the 2× compound plate using a CyBi®-Well dispenser. Compound incubation was then carried out at room temperature for 10 minutes. The assay plate was transferred to the […] and 20 μL of 10 mM Ca^2+ (final concentration=5 mM) Tyrode's buffer was injected.
Table B1 below summarizes the data from this experiment. Unless otherwise specified, AC50 and values are reported as the geometric mean of at least 2 assay runs on separate days. Each run represents the average of a technical replicate, where each compound was assayed twice in the same plate. A superscript t symbol indicates a value from the average of a technical replicate from a single assay run, where each compound was assayed twice in the same plate.
The AC50 values in Table B1 below reflect the compound's ability to prevent calcium influx by inhibiting APOL1. […] Compounds in Table B1 are referred to by the corresponding Compound Number in Table 1, which is also referred to in the synthetic examples. When one or more of the numbered compounds are identified by stereochemistry (for example, (R)- or (S)-), the specific stereoisomer for which data is provided in Table B1 may be identified by the elution order of such compound as described in the synthetic examples. To illustrate, Compound 2 is the first-eluting enantiomer of step 4 of Example 1 and Compound 3 is the second-eluting enantiomer of step 4 of Example 1. Further, by way of illustration, Compound 27 is the first-eluting enantiomeric mixture in step 4 of Example 7 and Compound 28 is the second-eluting enantiomeric mixture in step 4 of Example 7. […]

Some results are limits rather than exact numbers.

A word on the EC50: it is the midpoint of the concentration-response curve. As a reminder, the AC50 is the concentration at which the activity in the assay is half-maximal. With `C[C@@H]1CN(CC(O)c2cccc(C#N)c2)C[C@H]1COc1ccc(S(C)(=O)=O)nc1` (single isomer, unassigned) [Compound 106, 3-[(1R or 1S)-1-hydroxy-2-[(3S,4S)-3-{[(6-methanesulfonylpyridin-3-yl)oxy]methyl}-4-methylpyrrolidin-1-yl]ethyl]benzonitrile], in assay [1], the EC50 was above 10 µM. The AC50 in assay [2] is above 10 µM.

Turning to `C[C@@H]1C[C@H](COc2ccc(S(=O)(=O)CCCS(C)(=O)=O)cc2)CN1C1CCc2c(C#N)cc(Cl)cc2C1` (single isomer, unassigned) [Compound 45, (6S or 6R)-3-chloro-6-[(2R,4S)-4-{[4-(3-methanesulfonylpropanesulfonyl)phenoxy]methyl}-2-methylpyrrolidin-1-yl]-5,6,7,8-tetrahydronaphthalene-1-carbonitrile], the EC50 in assay [1] was determined as 0.3 µM. Further, the AC50 in assay [2] was determined as 0.998 µM.

As for `CS(=O)(=O)c1ccc(OC[C@@H]2CN(C(CO)Cc3cccc(Cl)c3)CCN2)cc1` (single isomer, unassigned) [Compound 119, (2S or 2R)-3-(3-chlorophenyl)-2-[(3S)-3-[(4-methanesulfonylphenoxy)methyl]piperazin-1-yl]propan-1-ol], the EC50 in assay [1] turned out to be 0.633 µM. In addition, the AC50 in assay [2] worked out at 2.33 µM.

With `C[C@@H]1C[C@H](COc2ccc(S(C)(=O)=O)cc2)CN1C1Cc2ccc(Cl)cc2C1` (single isomer, unassigned) [Compound 2], the EC50 in assay [1] amounted to 0.693 µM. Further, the AC50 in assay [2] amounted to 1.03 µM.

`Cc1cc(OC[C@@H]2CN(CCc3cc(Cl)cc(C#N)c3)C[C@H]2C)ccc1S(C)(=O)=O` [Compound 84, 3-chloro-5-{2-[(3S,4S)-3-[(4-methanesulfonyl-3-methylphenoxy)methyl]-4-methylpyrrolidin-1-yl]ethyl}benzonitrile]: in assay [1], the EC50 worked out at 0.0286 µM. In assay [2], the AC50 is 0.182 µM.

For `C[C@@H]1C[C@H](COc2ccc(S(C)(=O)=O)cc2)CN1C1CCc2c(C#N)cc(Cl)cc2C1` (single isomer, unassigned) [Compound 9, (6S or 6R)-3-chloro-6-[(2R,4S)-4-[(4-methanesulfonylphenoxy)methyl]-2-methylpyrrolidin-1-yl]-5,6,7,8-tetrahydronaphthalene-1-carbonitrile], in assay [1], the EC50 is 0.516 µM. The AC50 in assay [2] stood at 1.28 µM.

Consider `C[C@@H]1CN(CCc2cc(Cl)cc(C#N)c2)C[C@H]1COc1ccc(S(C)(=O)=O)nc1` [Compound 85, 3-chloro-5-{2-[(3S,4S)-3-{[(6-methanesulfonylpyridin-3-yl)oxy]methyl}-4-methylpyrrolidin-1-yl]ethyl}benzonitrile], for which the EC50 in assay [1] turned out to be 0.186 µM. In assay [2], the AC50 turned out to be 0.221 µM.

As for `C[C@@H]1C[C@H](COc2ccc(S(=O)(=O)CCCS(C)(=O)=O)cc2)CN1C1CCc2ccc(C#N)cc2C1` (single isomer, unassigned) [Compound 36, (7S or 7R)-7-[(2R,4S)-4-{[4-(3-methanesulfonylpropanesulfonyl)phenoxy]methyl}-2-methylpyrrolidin-1-yl]-5,6,7,8-tetrahydronaphthalene-2-carbonitrile], in assay [1], the EC50 worked out at 0.0363 µM. The concentration at half-maximal activity (AC50) in assay [2] was found to be 0.714 µM.

As for `CC(c1ccc(OC[C@@H]2CN(CCc3cccc(Cl)c3)CCN2)cc1)S(C)(=O)=O` (stereo partly drawn) [Compound 140, (3S)-1-[2-(3-chlorophenyl)ethyl]-3-{[4-(1-methanesulfonylethyl)phenoxy]methyl}piperazine], the EC50 in assay [1] was determined as 0.756 µM. The AC50 in assay [2] came out at 0.379 µM.

With `CC(C(O)c1cc(Cl)cc(C#N)c1)N1C[C@@H](COc2ccc(S(C)(=O)=O)cc2)C[C@H]1C` (single isomer, unassigned) [Compound 97, 3-chloro-5-[(1S,2S or 1R,2R or 1R,2S or 1S,2R)-1-hydroxy-2-[(2R,4S)-4-[(4-methanesulfonylphenoxy)methyl]-2-methylpyrrolidin-1-yl]propyl]benzonitrile], in assay [1], the EC50 was found to be 2.1 µM. For the same molecule, in assay [2], the AC50 was 0.813 µM.

The record behind these values is patent US20260055083A1, “APOL1 INHIBITORS AND METHODS OF USE” (Maze Therapeutics, Inc., priority 2022, published 2026).
